Data as given in the NIST ThermoML archive (doi:10.1021/acs.jced.9b00752).

Experiment: mn = molality of the nth substance listed, in mol/kg
Settings: 100 kPa, Liquid, Vibrating tube method

N[C@@H](Cc1ccccc1)C(=O)O [L-phenylalanine] + O
mass density [kg/m3]
Settings | 278.65 K | 279.15 K | 279.65 K | 280.15 K | 280.65 K | 281.15 K | 281.65 K | 282.15 K | 282.65 K | 283.15 K
m1 = 0.0036 | 1000.12 | 1000.11 | 1000.09 | 1000.07 | 1000.04 | 1000.02 | 999.986 | 999.952 | 999.913 | 999.87
m1 = 0.011 | 1000.47 | 1000.45 | 1000.43 | 1000.41 | 1000.39 | 1000.36 | 1000.33 | 1000.29 | 1000.25 | 1000.21
m1 = 0.0183 | 1000.81 | 1000.79 | 1000.77 | 1000.75 | 1000.73 | 1000.7 | 1000.66 | 1000.63 | 1000.59 | 1000.54
m1 = 0.033 | 1001.48 | 1001.47 | 1001.45 | 1001.42 | 1001.39 | 1001.36 | 1001.33 | 1001.29 | 1001.25 | 1001.21
m1 = 0.0443 | 1002.05 | 1002.04 | 1002.02 | 1001.99 | 1001.96 | 1001.93 | 1001.9 | 1001.86 | 1001.82 | 1001.77
m1 = 0.0536 | 1002.44 | 1002.42 | 1002.4 | 1002.37 | 1002.35 | 1002.31 | 1002.28 | 1002.24 | 1002.19 | 1002.15
m1 = 0.0623 | 1002.85 | 1002.83 | 1002.81 | 1002.78 | 1002.75 | 1002.72 | 1002.68 | 1002.64 | 1002.6 | 1002.55
m1 = 0.074 | 1003.39 | 1003.37 | 1003.34 | 1003.32 | 1003.28 | 1003.25 | 1003.21 | 1003.17 | 1003.13 | 1003.08
m1 = 0.0855 | 1003.94 | 1003.92 | 1003.89 | 1003.87 | 1003.83 | 1003.8 | 1003.76 | 1003.72 | 1003.67 | 1003.63
m1 = 0.0981 | 1004.54 | 1004.51 | 1004.49 | 1004.46 | 1004.43 | 1004.39 | 1004.35 | 1004.31 | 1004.26 | 1004.21
m1 = 0.1158 | 1005.4 | 1005.38 | 1005.35 | 1005.32 | 1005.28 | 1005.24 | 1005.2 | 1005.16 | 1005.11 | 1005.06
